From article PMC7496268, “Activity‐Directed Synthesis of Inhibitors of the p53/hDM2 Protein–Protein Interaction” (Chemistry (Weinheim an Der Bergstrasse, Germany), 2020) come the findings set out here.

Each structure is given as a SMILES string.

The first experiment deals with T1, hDM2 (Homo sapiens, UniProt Q00987).
T1 construct: gene MDM2; 15N-labelled for NMR; the anisotropy footnote prints hDM2_17-25, apparently a misprint of 17-125
The experiment in a line: 1H-15N HSQC NMR titration. The conditions noted are these: read-out: NMR Binding^[d] (K d/μM). The text has this: 1H-15N HSQC NMR titration on hDM2
Regarding `O=C(COC1CCc2cc(Cl)ccc21)N1CCC(c2ccccc2)C1` (centres unmarked) [P2], the Kd amounted to 34 ± 13 µM.

Consider `CN(C(=O)C(=O)c1ccc(Cl)cc1)c1ccc(Cl)cc1` [P4], for which the Kd is 35 ± 16 µM.

In the next experiment the target is T1, hDM2. In words: biochemical. The conditions noted are these: read-out: FA IC50. More on the design: fluorescence anisotropy competition, displacement of fluorescein-labelled p53 15-31 peptide from hDM2. The procedure:
The assay was then implemented similarly to the examples above to give final compound concentrations between 160 – 0.08 µM. IC50 values were determined and curves were fit in Origin Pro 2019b using a non-linear curve fitting with the dose response fitting procedure and Levenberg Marquardt iteration algorithm. 17 5.2 Fluorescence anisotropy assays The fluorescein-labelled p5315-31 Flu transactivation domain peptide (Ac-[…](Flu)- NH2) was purchased from Peptide Synthetics. The assay was carried out using Perkin-Elmer 384-well Opti-plate assay plates (6007270). Fluorescence anisotropy assays were performed in a buffer containing 40 mM phosphate pH 7.5, 200 mM NaCl and 0.02 mg/mL bovine serum albumin (PBSA). Results were collected using a Perkin-Elmer Envision 2103 Multilabel Reader using a 431 nm mirror, 480(104) nm excitation filter, and 535(208) and 535(209) nm emission filters after 2.5 or 24 hours of incubation at room temperature. Test well anisotropy values were then calculated using the blank corrected S and P channel values using the following formula: […]
`O=C(CO[C@@H]1CCc2cc(Cl)ccc21)N1CC[C@@H](c2ccccc2)C1` [P2a]: the IC50 is 28.2 ± 3 µM.

As for `O=C(CO[C@H]1CCc2cc(Cl)ccc21)N1CC[C@@H](c2ccccc2)C1` [P2b], the IC50 turned out to be 36.5 ± 3.5 µM.

With `O=C(COC1CCCC1)N1CCC(c2ccccc2)C1` (centres unmarked) [SI1], the IC50 is more than 200 µM.

For `O=C(COC1CCc2cc(Cl)ccc21)N1CCCC1` (centres unmarked) [SI2], the IC50 is more than 200 µM.

On to `O=C(CO[C@H]1CCc2cc(Cl)ccc21)N1CC[C@H](c2ccccc2)C1` [ent-P2a], for which the IC50 stood at 26 ± 3.8 µM.

Regarding `O=C(CO[C@@H]1CCc2cc(Cl)ccc21)N1CC[C@H](c2ccccc2)C1` [ent-P2b], the IC50 turned out to be 28.6 ± 2.9 µM.

For a further experiment, the target named is T1, hDM2. The experiment in a line: fluorescence anisotropy competition, displacement of fluorescein-labelled p53 tracer peptide. The experiment is classed as binding. Particulars: read-out: Fluorescence anisotropy^[c] IC50. The text has this: fluorescence anisotropy competition, displacement of fluorescein-labelled p53 tracer peptide on hDM2
A general note: Fluorescence polarisation rises when a labelled molecule tumbles more slowly, as on binding a larger partner.
With `O=C(COC1CCc2cc(Cl)ccc21)N1CCC(c2ccccc2)C1` (centres unmarked) [P2], the IC50 turned out to be 15 ± 0.1 µM.

Regarding `CN1C(=O)C(c2ccc(Cl)cc2)c2cc(Cl)ccc21` (centres unmarked) [P3], the IC50 was more than 100 µM.

With `CN(C(=O)C(=O)c1ccc(Cl)cc1)c1ccc(Cl)cc1` [P4], the IC50 is more than 30 µM.

As to `O=C1Nc2cc(Cl)ccc2C1c1c[nH]c2cc(Cl)ccc12` (centres unmarked) [P6], the IC50 stood at 0.94 ± 0.03 µM.

On to `CCOCC1CC12C(=O)Nc1cc(Cl)ccc12` (centres unmarked) [P7], for which the IC50 is more than 160 µM.

The same experiment, now with this note: […] hDM2, […] tracer, […] BSA, […] NaCl, […] DMSO, […] phosphate pH […] h; unreliable (limited solubility).
`O=C1Nc2cc(Cl)ccc2C12CC2c1ccc(Cl)cc1` (centres unmarked) [P5]: the “Fluorescence anisotropy^[c] IC50 [μM]” value is on record as ~ 10 μM.

A word on the IC50: it is the concentration at which inhibition is half-maximal.
